# Test results published in patent publication US10266537B2, “3-acetylenyl-pyrazole-pyrimidine derivative, and preparation method therefor and uses thereof” (Si Chuan University, priority 2015, dated 2019).
# Like-named read-outs stand apart in the source and are kept apart here.
# Experiments:
# [1] = molecular target: FAK(h) (Homo sapiens (Human), UniProt Q05397); assay: Kinase inhibition assay (KinaseProfiler, 33P-ATP); assay type: biochemical; conditions: compound at 10 μM, read-out: The percentage of the remaining active protein
# [2] = molecular target: Fer(h) (Homo sapiens (Human), UniProt P16591); assay: Kinase inhibition assay (KinaseProfiler, 33P-ATP); assay type: biochemical; conditions: compound at 10 μM, read-out: The percentage of the remaining active protein
# [3] = system: BT474; assay: Cell proliferation inhibition assay (MTT); assay type: cell-based; conditions: Homo sapiens, BT-474, 72 h, read-out: Proliferation inhibitory activity IC50
# Description: (§1) The cells were seeded in 96-well plates with 200 μL of cell suspension per well and incubated overnight in a cell culture medium with a cell concentration of 1 2×10^4 cells/mL. The next day, the supernatant was discarded (the suspension cell was centrifuged before it) and the cells were treated with gradient concentrations of the test compound, respectively. […] After 72 hours, add 20 μL of MTT reagent at a concentration of 5 mg/mL per well. After incubation for 2-4 h, the supernatant was discarded and 150 μL of DMSO was added to each well. […] Relative cell proliferation inhibition rate=([MUT]-[MUT])×100%/[MUT]. The experiment was repeated at least 3 times. Experimental data were expressed as mean, data statistics using t test, P<0.05 for the difference was statistically significant.
# [4] = molecular target: Fms(h) (Homo sapiens (Human), UniProt P07333); assay: Kinase inhibition assay (KinaseProfiler, 33P-ATP); assay type: biochemical; conditions: compound at 10 μM, read-out: The percentage of the remaining active protein
# [5] = molecular target: Fyn (Homo sapiens (Human), UniProt P06241); assay: Kinase inhibition assay (KinaseProfiler, 33P-ATP); assay type: biochemical
# [6] = molecular target: DDR1 (Homo sapiens (Human), UniProt Q08345); assay: Kinase inhibition assay (KinaseProfiler, 33P-ATP); assay type: biochemical; conditions: DDR1; ATP at Km
# [7] = system: SW1990; assay: Cell proliferation inhibition assay (MTT); assay type: cell-based; conditions: Homo sapiens, SW1990, 72 h, read-out: Proliferation inhibitory activity IC50
# Description: as §1
# [8] = molecular target: JAK2 (Homo sapiens (Human), UniProt O60674); assay: Kinase inhibition assay (KinaseProfiler, 33P-ATP); assay type: biochemical; conditions: JAK2; ATP at Km
# [9] = system: MDA-MB-231; assay: Cell proliferation inhibition assay (MTT); assay type: cell-based, human
# Description: The remaining cell lines were cultured in DMEM complete medium containing 10% fetal bovine serum (MV4-11 cells 20%), 100 U/ml penicillin, 100 μg/mL streptomycin at 5% CO2, and 37° C.
# The cells were seeded in 96-well plates with 200 μL of cell suspension per well and incubated overnight in a cell culture medium with a cell concentration of 1˜2×10^4 cells/mL. The next day, the supernatant was discarded (the suspension cell was centrifuged before it) and the cells were treated with gradient concentrations of the test compound, respectively. At the same time, the drug-free negative control group and the equal volume of solvent control group, DMSO concentration of 0.1%, each dose group set up three wells, 37° C., 5% CO2 conditions. After 72 hours, add 20 μL of MTT reagent at a concentration of 5 mg/mL per well. After incubation for 2-4 h, the supernatant was discarded and 150 μL of DMSO was added to each well. […] Determine the absorbance (A) value (λ=570 nm, A value is proportional to the number of living cells), whichever is the average. […] The experiment was repeated at least 3 times. Experimental data were expressed as mean, data statistics using t test, P<0.05 for the difference was statistically significant. The inhibitory effects of the following compounds on cell proliferation were expressed as IC50 or inhibition rates.
# [10] = system: HCT116; assay: Cell proliferation inhibition assay (MTT); assay type: cell-based; conditions: Homo sapiens, HCT-116, 72 h, read-out: Proliferation inhibitory activity IC50
# Description: as §1
# [11] = molecular target: Tie2 (Homo sapiens (Human), UniProt Q02763); assay: Kinase inhibition assay (KinaseProfiler, 33P-ATP); assay type: biochemical; conditions: Tie2 (h); compound at 10 μM; read-out: The percentage of the remaining active protein
# [12] = molecular target: PAK1(h) (Homo sapiens (Human), UniProt Q13153); assay: Kinase inhibition assay (KinaseProfiler, 33P-ATP); assay type: biochemical; conditions: compound at 10 μM, read-out: The percentage of the remaining active protein
# [13] = molecular target: EphA2 (Homo sapiens (Human), UniProt P29317); assay: Kinase inhibition assay (KinaseProfiler, 33P-ATP); conditions: EphA2; ATP at Km
# [14] = molecular target: Btk (Homo sapiens (Human), UniProt Q06187); assay: Kinase inhibition assay (KinaseProfiler, 33P-ATP); assay type: biochemical
# [15] = molecular target: IKKα (Homo sapiens (Human), UniProt O15111); assay: Kinase inhibition assay (KinaseProfiler, 33P-ATP); assay type: biochemical
# [16] = molecular target: Met(h) (Homo sapiens (Human), UniProt P08581); assay: Kinase inhibition assay (KinaseProfiler, 33P-ATP); assay type: biochemical; conditions: compound at 10 μM, read-out: The percentage of the remaining active protein
# [17] = molecular target: DDR2 (Homo sapiens (Human), UniProt Q16832); assay: Kinase inhibition assay (KinaseProfiler, 33P-ATP); assay type: biochemical; conditions: DDR2; ATP at Km
# [18] = molecular target: EphA8(h) (Homo sapiens (Human), UniProt P29322); assay: Kinase inhibition assay (KinaseProfiler, 33P-ATP); assay type: biochemical; conditions: compound at 10 μM, read-out: The percentage of the remaining active protein
# [19] = molecular target: Tec(h) activated (Homo sapiens (Human), UniProt P42680); assay: Kinase inhibition assay (KinaseProfiler, 33P-ATP); assay type: biochemical; conditions: compound at 10 μM, read-out: The percentage of the remaining active protein
# [20] = molecular target: PKBβ(h) (Homo sapiens (Human), UniProt P31751); assay: Kinase inhibition assay (KinaseProfiler, 33P-ATP); assay type: biochemical; conditions: compound at 10 μM, read-out: The percentage of the remaining active protein
# [21] = molecular target: GSK3β(h) (Homo sapiens (Human), UniProt P49841); assay: Kinase inhibition assay (KinaseProfiler, 33P-ATP); assay type: biochemical; conditions: compound at 10 μM, read-out: The percentage of the remaining active protein
# [22] = molecular target: Itk(h) (Homo sapiens (Human), UniProt Q08881); assay: Kinase inhibition assay (KinaseProfiler, 33P-ATP); assay type: biochemical; conditions: compound at 10 μM, read-out: The percentage of the remaining active protein
# [23] = molecular target: Axl (Homo sapiens (Human), UniProt P30530); assay: Kinase inhibition assay (KinaseProfiler, 33P-ATP); assay type: biochemical
# [24] = system: Miapaca-2; assay: Cell proliferation inhibition assay (MTT); assay type: cell-based; conditions: Homo sapiens, MIA PaCa-2, 72 h, read-out: Proliferation inhibitory activity IC50
# Description: as §1
# [25] = molecular target: Abl (Homo sapiens (Human), UniProt P00519); assay: Kinase inhibition assay (KinaseProfiler, 33P-ATP); assay type: biochemical; conditions: Abl; ATP at Km
# [26] = molecular target: B-Raf(V600E) (Homo sapiens (Human), UniProt P15056, V600E); assay: Kinase inhibition assay (KinaseProfiler, 33P-ATP); conditions: ATP at Km
# [27] = molecular target: PKCα(h) (Homo sapiens (Human), UniProt P17252); assay: Kinase inhibition assay (KinaseProfiler, 33P-ATP); assay type: biochemical; conditions: compound at 10 μM, read-out: The percentage of the remaining active protein
# [28] = molecular target: Blk (Homo sapiens (Human), UniProt P51451); assay: Kinase inhibition assay (KinaseProfiler, 33P-ATP); assay type: biochemical; conditions: Blk; ATP at Km
# [29] = molecular target: ARK5(h) (Homo sapiens (Human), UniProt O60285); assay: Kinase inhibition assay (KinaseProfiler, 33P-ATP); assay type: biochemical; conditions: compound at 10 μM, read-out: The percentage of the remaining active protein
# [30] = system: A375; assay: Cell proliferation inhibition assay (MTT); assay type: cell-based; conditions: Homo sapiens, A-375, 72 h, read-out: Proliferation inhibitory activity IC50
# Description: as §1
# [31] = molecular target: PI3 Kinase a(h) (Homo sapiens (Human), UniProt P42336); assay: Kinase inhibition assay (KinaseProfiler, 33P-ATP); assay type: biochemical; conditions: PI3 Kinase a(h); compound at 10 μM; read-out: The percentage of the remaining active protein
# Chain of Btk (Q06187 whole entry): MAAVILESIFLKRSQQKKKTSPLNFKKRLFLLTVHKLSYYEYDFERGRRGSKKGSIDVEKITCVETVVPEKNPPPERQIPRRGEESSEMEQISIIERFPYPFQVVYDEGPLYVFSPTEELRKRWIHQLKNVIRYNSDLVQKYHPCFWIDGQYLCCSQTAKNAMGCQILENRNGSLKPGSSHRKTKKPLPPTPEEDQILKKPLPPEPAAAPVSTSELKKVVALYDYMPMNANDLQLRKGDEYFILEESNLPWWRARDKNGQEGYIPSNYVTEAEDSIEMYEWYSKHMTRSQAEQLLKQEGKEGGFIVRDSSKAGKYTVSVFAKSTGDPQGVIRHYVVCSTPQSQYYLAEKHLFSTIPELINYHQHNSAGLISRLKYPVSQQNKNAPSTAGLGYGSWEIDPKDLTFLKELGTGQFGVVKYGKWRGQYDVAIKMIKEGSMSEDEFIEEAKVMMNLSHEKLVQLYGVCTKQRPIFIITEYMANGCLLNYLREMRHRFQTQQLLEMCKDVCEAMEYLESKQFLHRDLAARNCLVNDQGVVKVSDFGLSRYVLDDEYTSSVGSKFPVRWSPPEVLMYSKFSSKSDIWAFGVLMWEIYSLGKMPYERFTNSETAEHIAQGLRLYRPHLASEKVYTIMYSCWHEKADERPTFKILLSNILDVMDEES
# Chain of Fyn (P06241 whole entry): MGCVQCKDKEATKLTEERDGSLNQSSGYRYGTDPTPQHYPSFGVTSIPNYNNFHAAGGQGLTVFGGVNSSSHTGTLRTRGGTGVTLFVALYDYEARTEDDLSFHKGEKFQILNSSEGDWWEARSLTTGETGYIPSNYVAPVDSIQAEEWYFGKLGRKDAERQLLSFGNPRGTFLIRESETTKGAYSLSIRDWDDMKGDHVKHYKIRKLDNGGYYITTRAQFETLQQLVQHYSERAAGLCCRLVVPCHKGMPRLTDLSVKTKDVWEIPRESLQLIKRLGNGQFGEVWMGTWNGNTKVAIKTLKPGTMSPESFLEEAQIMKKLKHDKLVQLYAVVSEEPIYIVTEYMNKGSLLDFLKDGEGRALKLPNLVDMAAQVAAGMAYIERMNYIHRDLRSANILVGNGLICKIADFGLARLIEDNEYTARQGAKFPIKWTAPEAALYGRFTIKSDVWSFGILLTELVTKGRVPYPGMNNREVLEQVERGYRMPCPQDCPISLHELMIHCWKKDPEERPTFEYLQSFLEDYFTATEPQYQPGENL
# Chain of IKKα (O15111 whole entry): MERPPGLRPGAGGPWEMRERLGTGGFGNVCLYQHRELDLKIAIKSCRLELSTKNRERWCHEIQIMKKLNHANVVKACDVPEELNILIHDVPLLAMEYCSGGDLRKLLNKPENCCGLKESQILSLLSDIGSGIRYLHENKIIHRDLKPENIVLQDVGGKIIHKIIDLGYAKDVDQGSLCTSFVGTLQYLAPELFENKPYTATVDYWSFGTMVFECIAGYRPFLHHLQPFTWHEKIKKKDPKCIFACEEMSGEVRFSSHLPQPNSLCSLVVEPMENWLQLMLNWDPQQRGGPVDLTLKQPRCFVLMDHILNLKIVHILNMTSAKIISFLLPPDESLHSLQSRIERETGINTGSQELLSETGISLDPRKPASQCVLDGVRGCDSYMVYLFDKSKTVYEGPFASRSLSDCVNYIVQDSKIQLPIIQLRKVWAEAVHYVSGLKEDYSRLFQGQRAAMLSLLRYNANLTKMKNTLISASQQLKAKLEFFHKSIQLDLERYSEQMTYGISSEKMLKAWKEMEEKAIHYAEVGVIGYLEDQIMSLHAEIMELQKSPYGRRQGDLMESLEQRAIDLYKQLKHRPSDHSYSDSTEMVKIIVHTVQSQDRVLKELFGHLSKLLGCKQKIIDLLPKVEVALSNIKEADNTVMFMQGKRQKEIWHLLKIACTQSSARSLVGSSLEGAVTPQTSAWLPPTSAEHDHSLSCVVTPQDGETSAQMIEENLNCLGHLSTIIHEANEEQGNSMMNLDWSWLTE
# Chain of Axl (P30530 26-894): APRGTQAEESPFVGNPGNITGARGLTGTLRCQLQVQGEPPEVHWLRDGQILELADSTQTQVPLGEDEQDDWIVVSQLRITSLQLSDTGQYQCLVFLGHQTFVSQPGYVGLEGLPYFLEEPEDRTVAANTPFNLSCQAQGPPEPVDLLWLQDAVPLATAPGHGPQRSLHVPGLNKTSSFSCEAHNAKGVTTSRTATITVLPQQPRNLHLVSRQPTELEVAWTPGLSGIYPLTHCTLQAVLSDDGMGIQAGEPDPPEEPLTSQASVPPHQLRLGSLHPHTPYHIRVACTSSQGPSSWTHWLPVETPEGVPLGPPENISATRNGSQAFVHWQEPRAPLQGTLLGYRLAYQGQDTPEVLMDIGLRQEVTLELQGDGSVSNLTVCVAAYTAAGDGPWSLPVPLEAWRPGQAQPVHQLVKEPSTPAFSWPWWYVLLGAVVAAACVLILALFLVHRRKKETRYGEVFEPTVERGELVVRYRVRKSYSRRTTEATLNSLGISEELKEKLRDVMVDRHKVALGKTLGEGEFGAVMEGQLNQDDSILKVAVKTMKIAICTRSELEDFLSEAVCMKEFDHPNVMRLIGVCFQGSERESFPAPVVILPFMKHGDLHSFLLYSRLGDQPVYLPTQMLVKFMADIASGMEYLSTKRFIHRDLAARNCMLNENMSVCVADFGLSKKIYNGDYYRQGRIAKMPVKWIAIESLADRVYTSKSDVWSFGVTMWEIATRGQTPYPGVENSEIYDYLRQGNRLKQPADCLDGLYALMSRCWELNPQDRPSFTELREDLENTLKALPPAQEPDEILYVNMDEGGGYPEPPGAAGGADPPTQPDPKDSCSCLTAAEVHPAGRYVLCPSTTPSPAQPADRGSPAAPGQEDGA
# Chain of EphA8(h) (P29322 28-1005): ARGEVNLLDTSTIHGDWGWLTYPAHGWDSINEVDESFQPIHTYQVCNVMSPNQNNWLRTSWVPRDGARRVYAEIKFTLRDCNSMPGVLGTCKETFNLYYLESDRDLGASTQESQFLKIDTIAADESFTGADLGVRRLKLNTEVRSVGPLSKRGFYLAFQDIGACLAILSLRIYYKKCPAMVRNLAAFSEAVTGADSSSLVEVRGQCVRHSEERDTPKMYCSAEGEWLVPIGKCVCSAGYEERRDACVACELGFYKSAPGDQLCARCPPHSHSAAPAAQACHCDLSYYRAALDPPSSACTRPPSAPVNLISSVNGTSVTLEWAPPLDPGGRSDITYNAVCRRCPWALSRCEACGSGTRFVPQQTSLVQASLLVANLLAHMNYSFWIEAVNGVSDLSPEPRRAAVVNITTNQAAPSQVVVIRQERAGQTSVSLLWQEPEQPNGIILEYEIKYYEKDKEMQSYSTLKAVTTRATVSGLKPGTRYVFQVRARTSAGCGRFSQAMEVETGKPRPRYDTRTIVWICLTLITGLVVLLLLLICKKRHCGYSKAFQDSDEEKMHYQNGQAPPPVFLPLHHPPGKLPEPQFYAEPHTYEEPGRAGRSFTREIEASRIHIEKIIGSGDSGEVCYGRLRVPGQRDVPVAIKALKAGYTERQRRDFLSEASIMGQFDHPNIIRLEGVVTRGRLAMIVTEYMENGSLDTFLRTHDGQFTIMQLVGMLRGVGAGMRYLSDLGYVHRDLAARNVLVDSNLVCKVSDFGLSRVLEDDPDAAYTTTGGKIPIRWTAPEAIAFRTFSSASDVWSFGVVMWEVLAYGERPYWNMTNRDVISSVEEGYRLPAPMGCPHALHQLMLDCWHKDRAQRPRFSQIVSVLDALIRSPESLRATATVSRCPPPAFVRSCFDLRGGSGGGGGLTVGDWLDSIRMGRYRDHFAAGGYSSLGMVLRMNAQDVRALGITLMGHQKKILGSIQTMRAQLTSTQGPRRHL
# Chain of B-Raf(V600E) (P15056 whole entry V600E): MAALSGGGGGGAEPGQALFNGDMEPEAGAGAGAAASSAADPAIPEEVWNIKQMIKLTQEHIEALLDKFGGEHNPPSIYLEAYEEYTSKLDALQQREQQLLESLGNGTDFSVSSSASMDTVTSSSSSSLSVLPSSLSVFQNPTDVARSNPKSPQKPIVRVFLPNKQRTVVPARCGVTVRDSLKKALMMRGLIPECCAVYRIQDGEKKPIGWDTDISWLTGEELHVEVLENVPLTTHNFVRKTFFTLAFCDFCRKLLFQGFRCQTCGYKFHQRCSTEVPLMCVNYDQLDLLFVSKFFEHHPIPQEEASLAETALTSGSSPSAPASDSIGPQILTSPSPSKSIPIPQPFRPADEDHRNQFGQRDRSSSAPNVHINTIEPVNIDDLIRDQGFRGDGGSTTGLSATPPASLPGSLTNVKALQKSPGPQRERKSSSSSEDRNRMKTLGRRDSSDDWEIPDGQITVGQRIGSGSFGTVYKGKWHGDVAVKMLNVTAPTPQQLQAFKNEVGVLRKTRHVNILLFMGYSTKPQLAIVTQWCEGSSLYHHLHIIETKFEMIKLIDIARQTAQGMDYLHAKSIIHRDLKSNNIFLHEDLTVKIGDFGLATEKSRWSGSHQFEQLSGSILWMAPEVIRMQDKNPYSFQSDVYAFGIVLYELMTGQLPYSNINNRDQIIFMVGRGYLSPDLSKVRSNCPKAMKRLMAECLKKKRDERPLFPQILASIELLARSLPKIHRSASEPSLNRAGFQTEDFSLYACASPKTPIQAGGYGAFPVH
# Chain of GSK3β(h) (P49841 whole entry): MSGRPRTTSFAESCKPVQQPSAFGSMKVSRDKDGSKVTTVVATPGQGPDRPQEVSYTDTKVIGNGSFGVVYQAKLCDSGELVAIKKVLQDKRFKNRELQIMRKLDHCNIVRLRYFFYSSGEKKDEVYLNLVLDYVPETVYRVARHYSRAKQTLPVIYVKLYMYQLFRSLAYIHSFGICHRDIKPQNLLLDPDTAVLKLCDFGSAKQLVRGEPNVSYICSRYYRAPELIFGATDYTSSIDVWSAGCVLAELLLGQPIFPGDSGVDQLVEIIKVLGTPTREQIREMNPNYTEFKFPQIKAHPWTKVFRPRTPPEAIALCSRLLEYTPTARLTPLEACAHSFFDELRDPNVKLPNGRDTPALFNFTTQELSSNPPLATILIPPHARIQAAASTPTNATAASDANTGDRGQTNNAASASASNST
smiles,measurement,setting,value
CCn1nc(C#Cc2cc(C(=O)Nc3ccc(CN4CCN(C)CC4)c(C(F)(F)F)c3)ccc2C)c2c(N)ncnc21 [Compound 3],remaining activity at 10 µM,[1],43%
same,remaining activity at 10 µM,[2],23%
same,IC50,[3],> 10000 nM
same,remaining activity at 10 µM,[4],0%
same,remaining activity at 10 µM,"[5]; Fyn(h), compound at 10 μM, read-out: The percentage of the remaining active protein",0%
same,IC50,"[5]; Fyn, ATP at Km",5 nM
same,IC50,[6],9 nM
same,IC50,[7],356 nM
same,IC50,[8],2910 nM
same,IC50,"[9]; Homo sapiens, MDA-MB-231, 72 h, read-out: Proliferation inhibitory activity IC50",11.3 nM
same,IC50,[9]; read-out: Proliferative inhibitory activity MDA-MB-231 (IC50 class),< 100 nM
same,IC50,[10],178 nM
same,remaining activity at 10 µM,[11],3%
same,remaining activity at 10 µM,[12],57%
same,IC50,[13],16 nM
same,remaining activity at 10 µM,"[14]; BTK(h), compound at 10 μM, read-out: The percentage of the remaining active protein",-3%
same,IC50,"[14]; Btk, ATP at Km",67 nM
same,remaining activity at 10 µM,"[15]; IKKα(h), compound at 10 μM, read-out: The percentage of the remaining active protein",2%
same,IC50,"[15]; IKKα, ATP at Km",353 nM
same,remaining activity at 10 µM,[16],24%
same,IC50,[17],128 nM
same,remaining activity at 10 µM,[18],-5%
same,remaining activity at 10 µM,[19],4%
same,remaining activity at 10 µM,[20],52%
same,remaining activity at 10 µM,[21],130%
same,remaining activity at 10 µM,[22],5%
same,remaining activity at 10 µM,"[23]; Axl(h), compound at 10 μM, read-out: The percentage of the remaining active protein",-4%
same,IC50,"[23]; Axl, ATP at Km",578 nM
same,IC50,[24],12.8 nM
same,IC50,[25],< 1 nM
same,IC50,[26],15 nM
same,remaining activity at 10 µM,[27],101%
same,IC50,[28],19 nM
same,remaining activity at 10 µM,[29],105%
same,IC50,[30],20.9 nM
same,remaining activity at 10 µM,[31],93%
